Experimental data from US20130252930A1 (BIOMARIN PHARMACEUTICAL INC., priority 2010, published 2013).

target: T1, CYP17 (human testicular microsome) (Homo sapiens, UniProt P05093); assay: CYP17 enzymatic assay (% inhibition at 1 nM) (Biological Example 12); assay type: biochemical; settings: compound at 1 nM, read-out: Biological Example No. 12: CYP17 enzymatic assay % inhibition at 1 nM
T1 construct: using microsomal fraction from human testis (Celsis Cat #S00110) as the enzyme source; tissue Celsis S00110; host or cells: human testis microsomal fraction
T1 sequence (P05093 1-508): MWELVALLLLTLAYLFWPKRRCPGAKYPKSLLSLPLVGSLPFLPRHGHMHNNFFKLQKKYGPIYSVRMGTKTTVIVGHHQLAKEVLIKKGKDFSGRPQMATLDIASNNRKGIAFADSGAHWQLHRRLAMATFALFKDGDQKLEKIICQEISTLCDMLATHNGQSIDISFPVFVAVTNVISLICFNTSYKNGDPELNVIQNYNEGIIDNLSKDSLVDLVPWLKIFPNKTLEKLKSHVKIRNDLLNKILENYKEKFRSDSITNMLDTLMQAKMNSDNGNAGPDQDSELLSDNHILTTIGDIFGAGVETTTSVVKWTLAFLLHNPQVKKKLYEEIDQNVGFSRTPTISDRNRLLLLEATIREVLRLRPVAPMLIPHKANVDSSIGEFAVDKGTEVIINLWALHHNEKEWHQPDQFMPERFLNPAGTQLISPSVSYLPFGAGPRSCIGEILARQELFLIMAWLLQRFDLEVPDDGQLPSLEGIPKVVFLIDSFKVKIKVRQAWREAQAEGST

Question: Which inhibition at 0.001 µM does the source give for `CC1C[C@@]2(C)C(CC[C@@H]3[C@@H]2CC[C@]2(C)C(c4cccnc4)=CC[C@@H]32)C(C)C1=O` (stereo partly drawn) [Compound 415, (10R,13S)-2,4,10,13-tetramethyl-17-(pyridin-3-yl)-4,5,6,7,8,9,10,11,12,13,14,15-dodecahydro-1H-cyclopenta[a]phenanthren-3(2H)-one] here?
Answer: The inhibition at 0.001 µM was < 10%.

Question: `CC1C(O)CC[C@@]2(C)C1CCC1C2CC[C@]2(C)C(c3cncc(F)c3)=CCC12` (stereo partly drawn) [Compound 305, (10R,13S)-17-(5-fluoropyridin-3-yl)-4,10,13-trimethyl-2,3,4,5,6,7,8,9,10,11,12,13,14,15-tetradecahydro-1H-cyclopenta[a]phenanthren-3-ol] was tested. Which inhibition at 0.001 µM did it give?
Answer: The inhibition at 0.001 µM was < 10%.

Question: For `C[C@]12CC[C@H](O)CC1=CCC1C2CC[C@]2(C)C(c3cncc(NS(=O)(=O)C(F)(F)F)c3)=CCC12` (stereo partly drawn) [Compound 282, 1,1,1-trifluoro-N-(5-((3S,10R,13S)-3-hydroxy-10,13-dimethyl-2,3,4,7,8,9,10,11,12,13,14,15-dodecahydro-1H-cyclopenta[a]phenanthren-17-yl)pyridin-3-yl)methanesulfonamide], which inhibition at 0.001 µM is on record?
Answer: Its inhibition at 0.001 µM is < 10%.

Question: Which inhibition at 0.001 µM does the source give for `CC1CC2C(CC[C@]3(C)C(c4cccnc4)=CCC23)[C@@]2(C)CC[C@@](C)(O)CC12` (stereo partly drawn) [Compound 424, (3R,10S,13S)-3,6,10,13-tetramethyl-17-(pyridin-3-yl)-2,3,4,5,6,7,8,9,10,11,12,13,14,15-tetradecahydro-1H-cyclopenta[a]phenanthren-3-ol] here?
Answer: The inhibition at 0.001 µM was 10 to 50%.

Question: With `C[C@H]1C2CCC3C(CC[C@]4(C)C(c5cncc(C(F)F)c5)=CCC34)[C@@]2(C)CC[C@@H]1O` (stereo partly drawn) [Compound 307, (3S,4S,10R,13S)-17-(5-(difluoromethyl)pyridin-3-yl)-4,10,13-trimethyl-2,3,4,5,6,7,8,9,10,11,12,13,14,15-tetradecahydro-1H-cyclopenta[a]phenanthren-3-ol] as the compound, how does the inhibition at 0.001 µM read?
Answer: Its inhibition at 0.001 µM is 10 to 50%.

Question: Which inhibition at 0.001 µM does the source give for `CC(=O)NC1CC[C@@]2(C)C(CCC3C2CC[C@]2(C)C(c4cccnc4)=CCC32)C1C` (stereo partly drawn) [Compound 413, N-((10R,13S)-4,10,13-trimethyl-17-(pyridin-3-yl)-2,3,4,5,6,7,8,9,10,11,12,13,14,15-tetradecahydro-1H-cyclopenta[a]phenanthren-3-yl)acetamide] here?
Answer: The inhibition at 0.001 µM was < 10%.

Question: For `CC1CC2C(CC[C@]3(C)C(c4cccnc4)=CCC23)[C@@]2(C)CC[C@](C)(O)CC12` (stereo partly drawn) [Compound 425, (3S,10S,13S)-3,6,10,13-tetramethyl-17-(pyridin-3-yl)-2,3,4,5,6,7,8,9,10,11,12,13,14,15-tetradecahydro-1H-cyclopenta[a]phenanthren-3-ol], which inhibition at 0.001 µM is on record?
Answer: Its inhibition at 0.001 µM is 10 to 50%.

Question: How did the inhibition at 0.001 µM turn out when `C[C@H]1C2CCC3C(CC[C@]4(C)C(c5cncc(C(F)F)c5)=CCC34)[C@@]2(C)CC[C@H]1O` (stereo partly drawn) [Compound 308, (3R,4S,10R,13S)-17-(5-(difluoromethyl)pyridin-3-yl)-4,10,13-trimethyl-2,3,4,5,6,7,8,9,10,11,12,13,14,15-tetradecahydro-1H-cyclopenta[a]phenanthren-3-ol] was run?
Answer: Its inhibition at 0.001 µM is < 10%.

Question: With `CCNC(=O)N[C@@H]1CC[C@@]2(C)C(=CCC3C2CC[C@]2(C)C(c4cncc(F)c4)=CCC32)C1` (stereo partly drawn) [Compound 478, 1-ethyl-3-((3R,10R,13S)-17-(5-fluoropyridin-3-yl)-10,13-dimethyl-2,3,4,7,8,9,10,11,12,13,14,15-dodecahydro-1H-cyclopenta[a]phenanthren-3-yl)urea] as the compound, how does the inhibition at 0.001 µM read?
Answer: Its inhibition at 0.001 µM is 10 to 50%.

Question: With `CC1C(O)CC[C@@]2(C)C1CCC1C2CC[C@]2(C)C(c3cncc(C(F)F)c3)=CCC12` (stereo partly drawn) [Compound 306, (10R,13S)-17-(5-(difluoromethyl)pyridin-3-yl)-4,10,13-trimethyl-2,3,4,5,6,7,8,9,10,11,12,13,14,15-tetradecahydro-1H-cyclopenta[a]phenanthren-3-ol] as the compound, how does the inhibition at 0.001 µM read?
Answer: The inhibition at 0.001 µM was < 10%.

Question: `C[C@]12CC[C@H]3[C@@H](CC=C4C[C@@H](O)CC[C@@]43C)C1=CC=C2c1cncc(Cl)c1` [Compound 273, (3S,10R,13S)-17-(5-chloropyridin-3-yl)-10,13-dimethyl-2,3,4,7,8,9,10,11,12,13-decahydro-1H-cyclopenta[a]phenanthren-3-ol] was tested. Which inhibition at 0.001 µM did it give?
Answer: The inhibition at 0.001 µM was 10 to 50%.

Question: For `C[C@]12CC[C@H]3[C@@H](CCC45CC4C(O)CC[C@]35C)[C@@H]1CC=C2c1cncc(F)c1` (stereo partly drawn) [Compound 412, (4aR,6aS)-7-(5-fluoropyridin-3-yl)-4a,6a-dimethyl-1a,2,3,4,4a,4b,5,6,6a,9,9a,9b,10,11-tetradecahydro-1H-cyclopenta[a]cyclopropa[j]phenanthren-2-ol], which inhibition at 0.001 µM is on record?
Answer: The inhibition at 0.001 µM was 10 to 50%.

Question: Which inhibition at 0.001 µM does the source give for `C[C@]12CCC3(CO3)CC1CCC1C2CC[C@]2(C)C(c3cccnc3)=CCC12` (stereo partly drawn) [Compound 475, 3-((10S,13S)-10,13-dimethyl-1,2,4,5,6,7,8,9,10,11,12,13,14,15-tetradecahydrospiro[cyclopenta[a]phenanthrene-3,2′-oxiran]-17-yl)pyridine] here?
Answer: Its inhibition at 0.001 µM is 10 to 50%.

Question: For `CN1C(=O)CC[C@@]2(C)C1=CC[C@@H]1[C@@H]2CC[C@]2(C)C(c3cnccc3F)=CC[C@@H]12` [Compound 430, (4aR,6aS)-7-(4-fluoropyridin-3-yl)-1,4a,6a-trimethyl-4,4a,4b,5,6,6a,9,9a,9b,10-decahydro-1H-indeno[5,4-f]quinolin-2(3H)-one], which inhibition at 0.001 µM is on record?
Answer: Its inhibition at 0.001 µM is 10 to 50%.

Question: For `C[C@]1(O)CC[C@@]2(C)C(CCC3C2CC[C@]2(C)C(c4cncc(Cl)c4)=CCC32)C1` (stereo partly drawn) [Compound 265, (3S,10S,13S)-17-(5-chloropyridin-3-yl)-3,10,13-trimethyl-2,3,4,5,6,7,8,9,10,11,12,13,14,15-tetradecahydro-1H-cyclopenta[a]phenanthren-3-ol], which inhibition at 0.001 µM is on record?
Answer: Its inhibition at 0.001 µM is < 10%.

Question: Which inhibition at 0.001 µM does the source give for `C[C@]12CC[C@H](O)CC1=CCC1C2CC[C@]2(C)C(c3cncc(C#N)c3)=CCC12` (stereo partly drawn) [Compound 275, 5-((3S,10R,13S)-3-hydroxy-10,13-dimethyl-2,3,4,7,8,9,10,11,12,13,14,15-dodecahydro-1H-cyclopenta[a]phenanthren-17-yl)nicotinonitrile] here?
Answer: The inhibition at 0.001 µM was 10 to 50%.

Question: With `C[C@]12CC(O)CC1CCC1C2CC[C@]2(C)C(c3cncc(Cl)c3)=CCC12` (stereo partly drawn) [Compound 397, (3aS,5aS)-6-(5-chloropyridin-3-yl)-3a,5a-dimethyl-1,2,3,3a,3b,4,5,5a,8,8a,8b,9,10,10a-tetradecahydrodicyclopenta[a,f]naphthalen-2-ol] as the compound, how does the inhibition at 0.001 µM read?
Answer: Its inhibition at 0.001 µM is 10 to 50%.

same assay, conditions: compound at 1 nM, read-out: CYP17 enzymatic assay % inhibition at 1 nM (Biological Example No. 12)

Question: Which inhibition at 0.001 µM does the source give for `C[C@]12CC[C@@](O)(C3CC3)CC1CC[C@@H]1[C@@H]2CC[C@]2(C)C(c3cccnc3)=CC[C@@H]12` (stereo partly drawn) [Compound 252, (3S,10S,13S)-3-cyclopropyl-10,13-dimethyl-17-(pyridin-3-yl)-2,3,4,5,6,7,8,9,10,11,12,13,14,15-tetradecahydro-1H-cyclopenta[a]phenanthren-3-ol] here?
Answer: The inhibition at 0.001 µM was 10 to 50%.

Question: `C[C@]12CCC(NC(=O)c3nccs3)CC1=CCC1C2CC[C@]2(C)C(n3ccnc3)=CCC12` (stereo partly drawn) [Compound 241, N-((10R,13S)-17-(1H-imidazol-1-yl)-10,13-dimethyl-2,3,4,7,8,9,10,11,12,13,14,15-dodecahydro-1H-cyclopenta[a]phenanthren-3-yl)thiazole-2-carboxamide] was tested. Which inhibition at 0.001 µM did it give?
Answer: The inhibition at 0.001 µM was 10 to 50%.

Question: `CNC1CC[C@@]2(C)C(CCC3C2CC[C@]2(C)C(c4cncc(C)c4)=CCC32)C1` (stereo partly drawn) [Compound 210, (10S,13S)-N,10,13-trimethyl-17-(5-methylpyridin-3-yl)-2,3,4,5,6,7,8,9,10,11,12,13,14,15-tetradecahydro-1H-cyclopenta[a]phenanthren-3-amine] was tested. Which inhibition at 0.001 µM did it give?
Answer: The inhibition at 0.001 µM was 10 to 50%.

Question: With `CC1(C)C2=CC[C@@H]3[C@H](CC[C@]4(C)C(c5cccnc5)=CC[C@@H]34)[C@@]2(C)CCC1O` (stereo partly drawn) [Compound 294, (10R,13S)-4,4,10,13-tetramethyl-17-(pyridin-3-yl)-2,3,4,7,8,9,10,11,12,13,14,15-dodecahydro-1H-cyclopenta[a]phenanthren-3-ol] as the compound, how does the inhibition at 0.001 µM read?
Answer: Its inhibition at 0.001 µM is < 10%.

Question: For `CCOc1cncc(C2=CC[C@H]3[C@@H]4CC[C@H]5C[C@@H](OC)CC[C@]5(C)[C@H]4CC[C@]23C)c1` [Compound 457, 3-ethoxy-5-((3S,5S,8R,9S,10S,13S,14S)-3-methoxy-10,13-dimethyl-2,3,4,5,6,7,8,9,10,11,12,13,14,15-tetradecahydro-1H-cyclopenta[a]phenanthren-17-yl)pyridine], which inhibition at 0.001 µM is on record?
Answer: Its inhibition at 0.001 µM is 10 to 50%.

Question: How did the inhibition at 0.001 µM turn out when `C[C@]12CC[C@@H](N=[N+]=[N-])CC1CC[C@@H]1[C@@H]2CC[C@]2(C)C(c3cccnc3)=CC[C@@H]12` (stereo partly drawn) [Compound 214b, 3-((3R,10S,13S)-3-azido-10,13-dimethyl-2,3,4,5,6,7,8,9,10,11,12,13,14,15-tetradecahydro-1H-cyclopenta[a]phenanthren-17-yl)pyridine] was run?
Answer: Its inhibition at 0.001 µM is 10 to 50%.

same assay, conditions: test compound at 1 nM, read-out: CYP17 enzymatic assay percent inhibition at 1 nM (Biological Example No. 12)

Question: Which inhibition at 0.001 µM does the source give for `CC(=O)Nc1cncc(C2=CCC3C4CC=C5C[C@@H](O)CC[C@]5(C)C4CC[C@]23C)c1` (stereo partly drawn) [Compound 281, N-(5-((3S,10R,13S)-3-hydroxy-10,13-dimethyl-2,3,4,7,8,9,10,11,12,13,14,15-dodecahydro-1H-cyclopenta[a]phenanthren-17-yl)pyridin-3-yl)acetamide] here?
Answer: Its inhibition at 0.001 µM is < 10%.

Question: How did the inhibition at 0.001 µM turn out when `CCc1ccncc1C1=CC=C2C3CCC4C[C@@H](OC(C)=O)CC[C@]4(C)C3CC[C@]12C` (stereo partly drawn) [Compound 487, (3S,10S,13S)-17-(4-ethylpyridin-3-yl)-10,13-dimethyl-2,3,4,5,6,7,8,9,10,11,12,13-dodecahydro-1H-cyclopenta[a]phenanthren-3-yl acetate] was run?
Answer: The inhibition at 0.001 µM was 10 to 50%.
